The source of these data is PubChem BioAssay (NCI).

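Cells were grown in 96-well plates and exposed to each compound for 48 hours at five concentrations; endpoints were interpolated linearly between bracketing concentrations, or set to the highest concentration if not reached. Here, GI50 denotes the concentration required for 50% inhibition of growth. TGI: total growth inhibition.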 Bounds are passed on as bounds.

What all share (assay): growth of human tumour cells (NCI), 48 h
Assay [1] relates to A498 renal.
For assay [2], the system named is CCRF-CEM leukemia.
Assay [3] has as its system DMS 114 small cell lung.
For assay [4], the system named is DMS 273 small cell lung.
The subject of assay [5] is HCT-116 colon.
Assay [6] concerns HCT-15 colon.
Assay [7] has as its system KM12 colon.
For assay [8], the system named is LOX IMVI melanoma.
In assay [9] the test system is NCI-H460 lung.
For assay [10], the system named is NCI/ADR-RES ovarian.
In assay [11] the test system is SNB-78 CNS.
In assay [12] the test system is LXFL 529 NSCLC.

For `O=C[C@@H](CO)O[C@H](C=O)c1c[nH]c(=O)[nH]c1=O`, the TGI is 744 µM in assay [1]; 973 µM in assay [2]; 232 µM in [3]; 265 µM in assay [4]; 513 µM in assay [5]; 327 µM in assay [6]. Besides, the TGI was determined as 362 µM in assay [7]; 886 µM in assay [8]; 508 µM in assay [9]; 536 µM in assay [10]; 890 µM in assay [11].

For `CC(NS(=O)(=O)c1ccc([N+](=O)[O-])cc1)C(=O)O` (centres undefined), the TGI in assay [1], in [2], in [4], in assay [6], in assay [7] and in assay [8] was more than 100 µM throughout. For the same molecule, the TGI in assay [12] and in [9] was more than 100 µM in each case.

Take `COc1cccc2c1C(=O)C=CC2=O`: the TGI in [1] was determined as 29.9 µM; in assay [2] it was 1.65 µM; in [3], 10.3 µM; in [4], 30.8 µM; in [5] it was 12.1 µM; in assay [6], 24.2 µM. In addition, the TGI amounted to 25 µM in [7], 6.37 µM in [12], 32.6 µM in [9] and 9.3 µM in assay [11].

Turning to `COc1ccccc1/C=C(\C#N)c1ccccc1`, the TGI in assay [1] was 66.1 µM; in assay [2], 55.2 µM; in [3], 46.2 µM; in assay [4] it was 50 µM; in assay [5] it was more than 100 µM; in [6] it was 67.4 µM. In addition, the TGI in [7] is more than 100 µM; in assay [8], more than 100 µM; in [12], more than 100 µM; in assay [9] it was 74.1 µM; in assay [11], more than 100 µM.

`C/C(CN1C(=O)c2ccccc2C1=O)=N\NS(=O)(=O)c1ccc(C)cc1`: the TGI in assay [1], in assay [2], in [4], in assay [5], in assay [6] and in assay [7] was more than 100 µM throughout. In addition, the TGI in assay [12], in assay [9] and in [11] was more than 100 µM each time.

`Cc1ccc(S(=O)(=O)c2c(N)c3nc4ccccc4n3c3nc4ccccc4nc23)cc1`: the TGI in [2], in [3], in assay [4], in [5], in [6] and in [7] was more than 100 µM in each case. Moreover, the TGI in assay [8], in [12] and in [9] was more than 100 µM each time.

Take `CC1CC[C@]2(C(=O)O)CCC3(COC(=O)/C=C\c4ccc(O)cc4)C(=CCC4[C@@]5(C)CC[C@H](O)C(C)(C)C5CC[C@]43C)[C@@H]2[C@H]1C` (some centres undefined): the TGI was 60.4 µM in assay [1]; 81.9 µM in [2]; more than 100 µM in assay [3]; 50.3 µM in assay [4]; 37 µM in [5]; more than 100 µM in [6]. For the same molecule, the TGI was 25.7 µM in assay [7]; 28.2 µM in assay [8]; more than 100 µM in assay [12]; 35.5 µM in assay [9]; more than 100 µM in [11].

`CN(C)c1ccc2c(=O)c3ccccc3oc2n1`: the TGI in [2], in assay [3], in [4], in [6], in assay [7] and in assay [8] was more than 100 µM in each case. Further, the TGI in assay [12], in assay [9] and in assay [11] was more than 100 µM in each case.

Turning to `N#Cc1ccccc1NC(=O)/C(=N\N)C(C(=O)c1ccncc1)C1OC(=O)c2ccccc21` (centres undefined), the TGI in [2], in assay [5], in assay [6], in assay [7], in assay [8] and in [12] was more than 100 µM in each case. In assay [9], this molecule gave a TGI of more than 100 µM.

As to `O=C1[C@@H]2C(c3ccccc3Br)=NO[C@@H]2C(=O)N1c1ccc(Cc2ccc(N3C(=O)[C@H]4C(c5ccccc5Br)=NO[C@H]4C3=O)cc2)cc1`, the TGI in assay [1], in assay [2], in [3], in [4], in [6] and in assay [7] was more than 100 µM each time. Further, the TGI in assay [8], in [12], in assay [9] and in assay [11] was more than 100 µM throughout.

Take `C[N+](C)(C)CC1CCCC/C1=N\OC(=O)c1ccccc1` (centres undefined): the TGI in [2], in [3], in assay [4], in [5], in [6] and in assay [7] was more than 100 µM in each case. In addition, the TGI in assay [8], in [12], in [9] and in assay [11] was more than 100 µM in each case.

As to `CCOC(=O)Nc1cc2nnc(-c3ccccc3)nc2c(N)n1`, the TGI in assay [2] is more than 100 µM; in assay [3], more than 100 µM; in assay [5] it was 38.7 µM; in assay [6] it was more than 100 µM; in [7], more than 100 µM; in assay [8], 30.8 µM. For the same molecule, the TGI in assay [12] was more than 100 µM; in assay [9], 29.8 µM.

On to `NC1=NC(=O)/C(=C/c2ccccc2[N+](=O)[O-])C(N)=N1`, for which the TGI in assay [2], in assay [3], in [4], in assay [5], in assay [6] and in assay [7] was more than 100 µM throughout. Further, the TGI in [8], in assay [12], in assay [9] and in assay [11] was more than 100 µM throughout.

Consider `Cc1ccccc1NC(=O)C(=O)C(C#N)c1ccc(Cl)cc1` (centres undefined), for which the TGI is more than 100 µM in assay [1]; more than 100 µM in assay [2]; more than 100 µM in assay [3]; more than 100 µM in assay [4]; more than 100 µM in [5]; 37.1 µM in assay [6]. The TGI was more than 100 µM in assay [7]; 31 µM in [8]; more than 100 µM in assay [12]; 56 µM in assay [9]; more than 100 µM in [11].

Regarding `CC1CC(C2=CC=CCS2)=Nc2ccccc2S1` (centres undefined), the TGI in assay [1], in assay [2], in assay [4], in assay [5], in assay [6] and in assay [7] was more than 100 µM throughout. For the same molecule, the TGI in assay [8], in [12], in [9] and in assay [11] was more than 100 µM in each case.

In the case of `CN1N=CSC12C(=O)N(c1ccc(Cl)cc1)C(=O)N2c1ccc(Cl)cc1` (centres undefined), the TGI in assay [1] was 9.67 µM; in assay [2] it was more than 100 µM; in assay [5], 13.3 µM; in [7] it was 30.3 µM; in [8], 8.91 µM; in assay [12], more than 100 µM. The values for the TGI in assay [9] and in assay [11] were 20.4 µM and more than 100 µM, respectively.

For `O=C(Nc1c(O)[nH]c(=S)[nH]c1=O)c1ccccc1F`, the TGI in assay [1], in assay [2], in [3], in assay [5], in assay [6] and in assay [7] was more than 100 µM in each case. The TGI in [8], in assay [12], in assay [9] and in assay [11] was more than 100 µM in each case.

Turning to `Cc1ccc(NC(=O)c2cc3cc(N=Nc4ccc(Br)cc4)ccc3oc2=O)cc1`, the TGI in assay [1], in assay [3], in assay [4], in assay [5], in assay [6] and in assay [7] was more than 100 µM in each case. The TGI in [8], in [9] and in assay [11] was more than 100 µM each time.

Regarding `CCOc1ccccc1NC(=O)CC1C(=O)Nc2ccccc2S1=O` (centres undefined), the TGI in assay [1], in assay [2], in assay [3], in assay [4], in [5] and in [6] was more than 100 µM throughout. Also, the TGI in [8], in assay [12], in [9] and in assay [11] was more than 100 µM each time.

`ON/N=C/c1cc2c(cc1Br)OCO2`: the TGI in assay [2], in assay [3], in [4], in assay [5], in [7] and in [8] was more than 386 µM each time. Moreover, the TGI in assay [12] and in assay [9] was more than 386 µM in each case.

With `Cc1cn(Cc2ccccc2CCO)c(=S)[nH]c1=O`, the TGI in [1], in assay [2], in [3], in [4], in assay [6] and in assay [7] was more than 100 µM each time. The TGI in [8], in [12] and in assay [9] was more than 100 µM in each case.

For `CC(C)/C=C1\CCC(CN2CCCC2)C1=O` (centres undefined), the TGI in assay [1] is more than 59 µM; in assay [2], 17.3 µM; in assay [3], 34.5 µM; in assay [5] it was 20.9 µM; in assay [6], 18.3 µM; in [7], 23.1 µM. Besides, the TGI was 42.3 µM in [8], 10.1 µM in assay [12], more than 79.7 µM in assay [9] and 51.2 µM in assay [11].

For the molecule `CC(C)(C)OC1=C(OC(C)(C)C)C(O)(c2ccccc2)C1=O` (centres undefined), the TGI in assay [1], in assay [2], in assay [3], in [4], in assay [6] and in assay [7] was more than 100 µM each time. In addition, the TGI in assay [8], in [12], in [9] and in assay [11] was more than 100 µM throughout.

Regarding `O=C(Nc1ccccc1-c1n[nH]c(=S)[nH]c1=O)C(F)(F)F`, the TGI in [2], in assay [3], in [4], in [5], in assay [6] and in [7] was more than 100 µM in each case. Moreover, the TGI in [8], in assay [12], in [9] and in [11] was more than 100 µM in each case.

Consider `COc1ccc(C(=O)c2cc(OC)c(OC)c(OC)c2)cc1`, for which the TGI in [2] is more than 100 µM; in [3] it was more than 100 µM; in [4], more than 100 µM; in assay [5], more than 25.8 µM; in assay [7] it was more than 33.1 µM; in assay [8] it was more than 82.2 µM. Also, the TGI in assay [12] is more than 100 µM; in [9], 17.2 µM; in assay [10] it was more than 100 µM.

For `FC(F)(F)Oc1cccc(-c2cnc3ccc(-c4ccncc4)nn23)c1`, the GI50 in assay [1] is 0.365 µM; in [2], 2.03 µM; in [5], 0.518 µM; in assay [6] it was 0.608 µM; in [7], 0.662 µM; in assay [8] it was 1.07 µM. Besides, the figures for the GI50 in [9] and in [10] were 0.996 µM and 2.09 µM, respectively. Further, the TGI was 2.42 µM in assay [1]; 27 µM in [2]; more than 100 µM in assay [5]; more than 100 µM in [6]; more than 100 µM in assay [7]; 10.2 µM in assay [8]. The results for the TGI in assay [9] and in assay [10] were more than 100 µM and 95.5 µM, respectively.

As for `CCNC(=O)[C@@H]1CCCN2C(=O)CC[C@H](NC(=O)[C@H](Cc3ccc(OP(=O)(O)O)cc3)NC(C)=O)C(=O)N12`, the GI50 in [1], in [2], in assay [5], in assay [6], in [7] and in assay [8] was more than 25 µM each time. Further, the GI50 in assay [9] and in assay [10] was more than 25 µM in each case. Further, the TGI in assay [1], in assay [2], in [5], in assay [6], in assay [7] and in assay [8] was more than 25 µM each time. Besides, the TGI in assay [9] and in [10] was more than 25 µM in each case.
